Laboratory results taken from patent US10316017B2, “COT modulators and methods of use thereof” (Gilead Sciences, Inc., priority 2015, dated 2019).

Assays:
[1] = target: T1, human Cot catalytic domain (30-397 amino acids) (Homo sapiens, UniProt P41279); assay: High Throughput Cot Biochemical Assay (KinEASE TR-FRET); settings: Cot biochemical HTRF (KinEASE TR-FRET) assay; read-out: IC50 HTRF
T1 construct: Purified recombinant human Cot catalytic domain (30-397 amino acids) was purchased from Cama Biosciences; purchased Cama Biosciences (so in the source)
T1 sequence (P41279 30-397): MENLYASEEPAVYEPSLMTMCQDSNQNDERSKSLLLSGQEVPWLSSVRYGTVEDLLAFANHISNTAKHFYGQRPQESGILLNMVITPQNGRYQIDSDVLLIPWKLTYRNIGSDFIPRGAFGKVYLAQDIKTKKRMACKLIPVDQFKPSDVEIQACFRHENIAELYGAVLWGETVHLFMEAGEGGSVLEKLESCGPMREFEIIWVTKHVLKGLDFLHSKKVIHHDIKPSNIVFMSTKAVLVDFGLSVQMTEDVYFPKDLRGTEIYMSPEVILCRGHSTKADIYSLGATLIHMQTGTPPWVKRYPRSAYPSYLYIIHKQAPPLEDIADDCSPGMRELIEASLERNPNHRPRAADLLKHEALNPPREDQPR
Outline: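 Recombinant human Cot catalytic domain (aa 30-397), 5 nM, with 1 μM STK3 peptide and 400 μM ATP in MOPS pH 7.0 buffer with MgOAc, DTT, BSA, NP-40, glycerol, 0.1% DMSO. Phosphorylated XL665-peptide detected by Eu-[…] antibody TR-FRET.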

[2] = system: TNFα production in LPS-stimulated human monocytes; assay: Cot Monocyte TNFα Cell Based Assay; settings: Homo sapiens, Monocyte, TNFα in LPS-stimulated human monocytes; read-out: EC50 TNF
Outline: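 Human monocytes (5,000 cells/well) pretreated with compound for 1 hour at 37° C (0.5% DMSO), then stimulated with 50 pg/ml LPS for 4 hours. Total TNFα measured by TR-FRET after overnight antibody incubation at room temp, expressed as percent of control between unstimulated and stimulated cells.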

| IC50 [1] | EC50 [2] | SMILES |
| --- | --- | --- |
| 72 nM | 3990 nM | CN(C)Cc1ccccc1[C@H](Nc1cc(Cl)c2ncc(C#N)c(Nc3ccc(F)c(Cl)c3)c2c1)c1cn(C2CCN(C(C)(C)C)CC2)nn1 [Example 720, (S)-6-(((1-(1-(tert-butyl)piperidin-4-yl)-1H-1,2,3-triazol-4-yl)(2-((dimethylamino)methyl)phenyl)methyl)amino)-8-chloro-4-((3-chloro-4-fluorophenyl)amino)quinoline-3-carbonitrile] |
| 21 nM | 470 nM | N#Cc1cnc2c(Cl)cc(N[C@@H](c3ccccc3)c3cn(-c4cccnc4)nn3)cc2c1Nc1ccc(F)c(Cl)c1 [Example 721, (S)-8-chloro-4-((3-chloro-4-fluorophenyl)amino)-6-((phenyl (1-(pyridin-3-yl)-1H-1,2,3-triazol-4-yl)methyl)amino)quinoline-3-carbonitrile] |
| 4 nM | 76 nM | CC(C)(C)N1CCC(n2cc([C@@H](Nc3cc(Cl)c4ncc(C#N)c(Nc5ccc(F)c(Cl)c5)c4c3)c3ccccc3CO)nn2)CC1 [Example 722, (S)-6-(((1-(1-(tert-butyl)piperidin-4-yl)-1H-1,2,3-triazol-4-yl)(2-(hydroxymethyl)phenyl)methyl)amino)-8-chloro-4-((3-chloro-4-fluorophenyl)amino)quinoline-3-carbonitrile] |
| 217 nM | 1300 nM | N#Cc1cnc2c(Cl)cc(N[C@@H](c3ccc(Cl)cc3)c3cn(C4CCN(C5COC5)CC4)nn3)cc2c1Nc1ccc(F)c(F)c1 [Example 723, (S)-8-chloro-6-(((4-chlorophenyl)(1-(1-(oxetan-3-yl)piperidin-4-yl)-1H-1,2,3-triazol-4-yl)methyl)amino)-4-((3,4-difluorophenyl)amino)quinoline-3-carbonitrile] |
| 87 nM | 1400 nM | COCCOCCn1cc([C@@H](Nc2cc(Cl)c3ncc(C#N)c(Nc4ccc(F)c(F)c4)c3c2)c2ccc(Cl)cc2)nn1 [Example 724, (S)-8-chloro-6-(((4-chlorophenyl)(1-(2-(2-methoxyethoxy)ethyl)-1H-1,2,3-triazol-4-yl)methyl)amino)-4-((3,4-difluorophenyl)amino) quinoline-3-carbonitrile] |
| 3 nM | 178 nM | CC(C)(O)c1cccc([C@H](Nc2cc(Cl)c3ncc(C#N)c(Nc4ccc(F)c(Cl)c4)c3c2)c2cn(C3CCN(C(C)(C)C)CC3)nn2)c1 [Example 727, (S)-6-(((1-(1-(tert-butyl)piperidin-4-yl)-1H-1,2,3-triazol-4-yl)(3-(2-hydroxypropan-2-yl)phenyl)methyl)amino)-8-chloro-4-((3-chloro-4-fluorophenyl)amino)quinoline-3-carbonitrile] |
| 3 nM | 124 nM | COC(=O)c1cccc([C@H](Nc2cc(Cl)c3ncc(C#N)c(Nc4ccc(F)c(Cl)c4)c3c2)c2cn(C3CCN(C(C)(C)C)CC3)nn2)c1 [Example 728, methyl (S)-3-((1-(1-(tert-butyl)piperidin-4-yl)-1H-1,2,3-triazol-4-yl)((8-chloro-4-((3-chloro-4-fluorophenyl)amino)-3-cyanoquinolin-6-yl)amino)methyl)benzoate] |
| 32 nM | 532 nM | N#Cc1cnc2c(Cl)cc(N[C@@H](c3ccccc3)c3cn(Cc4ccccn4)nn3)cc2c1Nc1ccc(F)c(Cl)c1 [Example 729, (S)-8-chloro-4-((3-chloro-4-fluorophenyl)amino)-6-((phenyl (1-(pyridin-2-ylmethyl)-1H-1,2,3-triazol-4-yl)methyl)amino)quinoline-3-carbonitrile] |
| 78 nM | 4450 nM | CC(C)(C)N1CCC(n2cc([C@@H](Nc3cc(Cl)c4ncc(C#N)c(Nc5ccc(Cl)c(Cl)c5F)c4c3)c3ccc(Cl)cc3)nn2)CC1 [Example 731, (S)-6-(((1-(1-(tert-butyl)piperidin-4-yl)-1H-1,2,3-triazol-4-yl)(4-chlorophenyl)methyl)amino)-8-chloro-4-((3,4-dichloro-2-fluorophenyl)amino)quinoline-3-carbonitrile] |
| 6 nM | 884 nM | CC(C)(C)N1CCC(n2cc([C@@H](Nc3cc(Cl)c4ncc(C#N)c(Nc5ccc(F)c(Cl)c5)c4c3)c3cccc(CN4CCOCC4)c3)nn2)CC1 [Example 733, (S)-6-(((1-(1-(tert-butyl)piperidin-4-yl)-1H-1,2,3-triazol-4-yl)(3-(morpholinomethyl)phenyl)methyl)amino)-8-chloro-4-((3-chloro-4-fluorophenyl)amino)quinoline-3-carbonitrile] |
| 151 nM | 3900 nM | Cc1nnc(C(Nc2cc(Cl)c3ncc(C#N)c(Nc4ccc(F)c(Cl)c4)c3c2)c2ccc(F)cc2)o1 (centres unmarked) [Example 734, 8-chloro-4-((3-chloro-4-fluorophenyl)amino)-6-(((4-fluorophenyl)(5-methyl-1,3,4-oxadiazol-2-yl)methyl)amino)quinoline-3-carbonitrile] |
| 41 nM | 376 nM | CN1CC(n2cc([C@@H](Nc3cc(Cl)c4ncc(C#N)c(Nc5ccc(F)c(Cl)c5)c4c3)c3ccccc3)nn2)CC(F)(F)C1 (stereo partly drawn) [Example 736, 8-chloro-4-((3-chloro-4-fluorophenyl)amino)-6-(((1S)-(1-(5,5-difluoro-1-methylpiperidin-3-yl)-1H-1,2,3-triazol-4-yl)(phenyl)methyl)amino) quinoline-3-carbonitrile] |
| 21 nM | 411 nM | N#Cc1cnc2c(Cl)cc(N[C@@H](c3ccccc3)c3cn(CCN4CCOCC4)nn3)cc2c1Nc1ccc(F)c(Cl)c1 [Example 737, (S)-8-chloro-4-((3-chloro-4-fluorophenyl)amino)-6-(((1-(2-morpholinoethyl)-1H-1,2,3-triazol-4-yl)(phenyl)methyl)amino)quinoline-3-carbonitrile] |
| 7 nM | 274 nM | N#Cc1cnc2c(Cl)cc(N[C@@H](c3ccccc3)c3cn(CCO)nn3)cc2c1Nc1ccc(F)c(Cl)c1 [Example 738, (S)-8-chloro-4-((3-chloro-4-fluorophenyl)amino)-6-(((1-(2-hydroxyethyl)-1H-1,2,3-triazol-4-yl)(phenyl)methyl)amino)quinoline-3-carbonitrile] |
| 22 nM | 1100 nM | CC(C)(C)N1CCC(n2cc([C@@H](Nc3cc(Cl)c4ncc(C#N)c(Nc5cccc(Cl)c5F)c4c3)c3ccc(Cl)cc3)nn2)CC1 [Example 739, (S)-6-(((1-(1-(tert-butyl)piperidin-4-yl)-1H-1,2,3-triazol-4-yl)(4-chlorophenyl)methyl)amino)-8-chloro-4-((3-chloro-2-fluorophenyl)amino)quinoline-3-carbonitrile] |
| 244 nM | 5550 nM | CC(C)(C)N1CCC(n2cc([C@@H](Nc3cc(Cl)c4ncc(C#N)c(Nc5ccc(Cl)cc5)c4c3)c3ccc(Cl)cc3)nn2)CC1 [Example 740, (S)-6-(((1-(1-(tert-butyl)piperidin-4-yl)-1H-1,2,3-triazol-4-yl)(4-chlorophenyl)methyl)amino)-8-chloro-4-((4-chlorophenyl)amino)quinoline-3-carbonitrile] |
| 122 nM | 1240 nM | Cc1cccc(Nc2c(C#N)cnc3c(Cl)cc(N[C@@H](c4ccc(Cl)cc4)c4cn(C5CCN(C(C)(C)C)CC5)nn4)cc23)c1 [Example 741, (S)-6-(((1-(1-(tert-butyl)piperidin-4-yl)-1H-1,2,3-triazol-4-yl)(4-chlorophenyl)methyl)amino)-8-chloro-4-(m-tolylamino)quinoline-3-carbonitrile] |
| 315 nM | 1770 nM | Cc1ccc(Nc2c(C#N)cnc3c(Cl)cc(N[C@@H](c4ccc(Cl)cc4)c4cn(C5CCN(C(C)(C)C)CC5)nn4)cc23)cc1 [Example 742, (S)-6-(((1-(1-(tert-butyl)piperidin-4-yl)-1H-1,2,3-triazol-4-yl)(4-chlorophenyl)methyl)amino)-8-chloro-4-(p-tolylamino)quinoline-3-carbonitrile] |
| 29 nM | 575 nM | CCN1CC[C@@H](n2cc([C@@H](Nc3cc(Cl)c4ncc(C#N)c(Nc5ccc(F)c(Cl)c5)c4c3)c3ccccc3)nn2)[C@H](F)C1 [Example 743, 8-chloro-4-((3-chloro-4-fluorophenyl)amino)-6-(((S)-(1-((3R,4R)-1-ethyl-3-fluoropiperidin-4-yl)-1H-1,2,3-triazol-4-yl)(phenyl)methyl)amino)quinoline-3-carbonitrile] |
| 13 nM | 363 nM | N#Cc1cnc2c(Cl)cc(N[C@@H](c3ccccc3)c3cn([C@@H]4CCNC[C@H]4F)nn3)cc2c1Nc1ccc(F)c(Cl)c1 [Example 744, 8-chloro-4-((3-chloro-4-fluorophenyl)amino)-6-(((S)-(1-((3R,4R)-3-fluoropiperidin-4-yl)-1H-1,2,3-triazol-4-yl)(phenyl)methyl)amino) quinoline-3-carbonitrile] |
| 70 nM | 615 nM | CCN1CC(n2cc([C@@H](Nc3cc(Cl)c4ncc(C#N)c(Nc5ccc(F)c(Cl)c5)c4c3)c3ccccc3)nn2)CC(F)(F)C1 (stereo partly drawn) [Example 745, 8-chloro-4-((3-chloro-4-fluorophenyl)amino)-6-(((1S)-(1-(1-ethyl-5,5-difluoropiperidin-3-yl)-1H-1,2,3-triazol-4-yl)(phenyl)methyl)amino) quinoline-3-carbonitrile] |
| 29 nM | 349 nM | N#Cc1cnc2c(Cl)cc(N[C@@H](c3ccccc3)c3cn(CC(=O)N4CCOCC4)nn3)cc2c1Nc1ccc(F)c(Cl)c1 [Example 746, (S)-8-chloro-4-((3-chloro-4-fluorophenyl)amino)-6-(((1-(2-morpholino-2-oxoethyl)-1H-1,2,3-triazol-4-yl)(phenyl)methyl)amino) quinoline-3-carbonitrile] |
